Laboratory results: patent publication US6525001B1, “Substituted pyrimidine and pyridine herbicides” (Mid-American Commercialization Corporation, priority 1997, dated 2003)

Key:
Test in all cases: Test D
Type in all cases: in vivo
[1] = system: blackgrass (Alopecurus myosuroides); details: PREEMERGENCE
[2] = system: galium 2 (Galium aparine); design: key: 0 is no effect; 100 is complete control; details: PREEMERGENCE
[3] = system: Italian ryegrass (Lolium multiflorum); details: PREEMERGENCE
[4] = system: littleseed canarygrass (Phalaris minor); details: PREEMERGENCE
[5] = system: deadnettle (Lamium amplexicaule); details: PREEMERGENCE
[6] = system: wild mustard (Sinapis arvensis); design: key: 0 is no effect; 100 is complete control; details: PREEMERGENCE
[7] = system: wild buckwheat (Polygonum convolvulus); details: PREEMERGENCE
[8] = system: rape (Brassica napus); design: key: 0 is no effect; 100 is complete control; details: PREEMERGENCE
[9] = system: sugar beet (Beta vulgaris); design: key: 0 is no effect; 100 is complete control; details: PREEMERGENCE
[10] = system: common poppy (Papaver rhoeas); design: key: 0 is no effect; 100 is complete control; details: PREEMERGENCE
[11] = system: galium 2 (Galium aparine); details: POSTEMERGENCE
Protocol: (§1) Compounds evaluated in this test were formulated in a non-phytotoxic solvent mixture which included a surfactant and applied to plants that were in the 1- to 4-leaf stage (postemergence application). A mixture of sandy loam soil and greenhouse potting mix in a 60:40 ratio was used for the postemergence test.
(§2) Plantings of these crops and weed species were adjusted to produce plants of appropriate size for the postemergence test. All plant species were grown using normal greenhouse practices. Crop and weed species include alfalfa (Medicago sativa), annual bluegrass (Poa annua), blackgrass (Alopecurus myosuroides), black nightshade (Solanum nigra), chickweed (Stellaria media), common poppy (Papaver rhoeas), deadnettle (Lamium amplexicaule), downy brome (Bromus tectorum), field violet (Viola arvensis), galium 2 (Galium aparine), green foxtail (Setaria viridis), Italian ryegrass (Lolium multiflorum), jointed goatgrass (Aegilops cylindrica), kochia (Kochia scoparia), lambsquarters (Chenopodium album), lentil (Lens culinaris), littleseed canarygrass (Phalaris minor), pea (Pisum sativum), potato (Solanum tuberosum), rape (Brassica napus), redroot pigweed (Amaranthus retroflexus), Russian thistle (Salsola kali), scentless chamomile (Matricaria inodora), sorghum (Sorghum vulgare), spring barley (Hordeum vulgare), sugar beet (Beta vulgaris), sunflower (Helianthus annuus), ivyleaf speedwell (Veronica hederaefolia), spring wheat (Triticum aestivum), winter wheat (Triticum aestivum), wild buckwheat (Polygonum convolvulus), wild mustard (Sinapis arvensis), wild oat (Avena fatua), windgrass (Apera spica-venti) and winter barley (Hordeum vulgare).
(§3) Treated plants and untreated controls were maintained in a greenhouse for approximately 21 to 28 days, after which all treated plants were compared to untreated controls and visually evaluated. Plant response ratings, summarized in Table D, are based upon a 0 to 100 scale where 0 is no effect and 100 is complete control. A dash response (−) means no test result.

[12] = system: wild buckwheat (Polygonum convolvulus); details: POSTEMERGENCE
Protocol: as §1, §2, §3

[13] = system: kochia (Kochia scoparia); details: POSTEMERGENCE
Protocol: as §1, §2, §3

[14] = system: redroot pigweed (Amaranthus retroflexus); details: POSTEMERGENCE
Protocol: as §1, §2, §3

[15] = system: windgrass (Apera spica-venti); details: POSTEMERGENCE
Protocol: as §1, §2, §3

[16] = system: common poppy (Papaver rhoeas); design: key: 0 is no effect; 100 is complete control; details: POSTEMERGENCE
Protocol: as §1, §2, §3

[17] = system: sugar beet (Beta vulgaris); design: key: 0 is no effect; 100 is complete control; details: POSTEMERGENCE
Protocol: as §1, §2, §3

[18] = system: wild mustard (Sinapis arvensis); design: key: 0 is no effect; 100 is complete control; details: POSTEMERGENCE
Protocol: as §1, §2, §3

[19] = system: chickweed (Stellaria media); design: key: 0 is no effect; 100 is complete control; details: POSTEMERGENCE
Protocol: as §1, §2, §3

[20] = system: deadnettle (Lamium amplexicaule); design: key: 0 is no effect; 100 is complete control; details: POSTEMERGENCE
Protocol: as §1, §2, §3

[21] = system: black nightshade (Solanum nigra); design: key: 0 is no effect; 100 is complete control; details: POSTEMERGENCE
Protocol: as §1, §2, §3

[22] = system: rape (Brassica napus); design: key: 0 is no effect; 100 is complete control; details: POSTEMERGENCE
Protocol: as §1, §2, §3

## Cc1cnc(-n2cnc(C(F)(F)F)n2)nc1Cn1ccc(C(F)(F)F)n1 [Compound 51]
[1]; Rate 31 g/ha
  Plant response rating, Blackgrass: 60
[1]; Rate 62 g/ha
  Plant response rating, Blackgrass: 80
[2]; Rate 31 g/ha
  Plant response rating, Galium: 100
[2]; Rate 62 g/ha
  Plant response rating, Galium: 100
[3]; Rate 31 g/ha
  Plant response rating, I. Ryegrass: 60
[3]; Rate 62 g/ha
  Plant response rating, I. Ryegrass: 90
[4]; Rate 31 g/ha
  Plant response rating, LS canarygrass: 80
[4]; Rate 62 g/ha
  Plant response rating, LS canarygrass: 90
[5]; Rate 31 g/ha
  Plant response rating, Deadnettle: 80
[5]; Rate 62 g/ha
  Plant response rating, Deadnettle: 80
[6]; Rate 31 g/ha
  Plant response rating, Wild mustard: 100
[6]; Rate 62 g/ha
  Plant response rating, Wild mustard: 100
[7]; Rate 31 g/ha
  Plant response rating, Wild buckwheat: 90
[7]; Rate 62 g/ha
  Plant response rating, Wild buckwheat: 90
[8]; Rate 31 g/ha
  Plant response rating, Rape: 100
[8]; Rate 62 g/ha
  Plant response rating, Rape: 100
[9]; Rate 31 g/ha
  Plant response rating, Sugar beet: 100
[9]; Rate 62 g/ha
  Plant response rating, Sugar beet: 100
[10]; Rate 31 g/ha
  Plant response rating, Common poppy: 100
[10]; Rate 62 g/ha
  Plant response rating, Common poppy: 100

## Cc1cnc(-n2ccc(C(F)(F)F)n2)nc1Cn1ccc(C(F)(F)F)n1 [Compound 52]
[11]; Rate 16 g/ha
  Plant response rating, Galium: 40
[11]; Rate 31 g/ha
  Plant response rating, Galium: 50
[11]; Rate 62 g/ha
  Plant response rating, Galium: 65
[11]; Rate 125 g/ha
  Plant response rating, Galium: 60
[12]; Rate 16 g/ha
  Plant response rating, Wild buckwheat: 60
[12]; Rate 31 g/ha
  Plant response rating, Wild buckwheat: 50
[12]; Rate 62 g/ha
  Plant response rating, Wild buckwheat: 70
[12]; Rate 125 g/ha
  Plant response rating, Wild buckwheat: 80
[13]; Rate 16 g/ha
  Plant response rating, Kochia: 70
[13]; Rate 31 g/ha
  Plant response rating, Kochia: 70
[13]; Rate 62 g/ha
  Plant response rating, Kochia: 70
[13]; Rate 125 g/ha
  Plant response rating, Kochia: 70
[14]; Rate 16 g/ha
  Plant response rating, Redroot pigweed: 45
[14]; Rate 31 g/ha
  Plant response rating, Redroot pigweed: 60
[14]; Rate 62 g/ha
  Plant response rating, Redroot pigweed: 60
[14]; Rate 125 g/ha
  Plant response rating, Redroot pigweed: 70
[1]; Rate 31 g/ha
  Plant response rating, Blackgrass: 50
[1]; Rate 62 g/ha
  Plant response rating, Blackgrass: 80
[1]; Rate 125 g/ha
  Plant response rating, Blackgrass: 90
[3]; Rate 31 g/ha
  Plant response rating, I. Ryegrass: 30
[3]; Rate 62 g/ha
  Plant response rating, I. Ryegrass: 70
[3]; Rate 125 g/ha
  Plant response rating, I. Ryegrass: 70
[4]; Rate 31 g/ha
  Plant response rating, LS canarygrass: 30
[4]; Rate 62 g/ha
  Plant response rating, LS canarygrass: 60
[4]; Rate 125 g/ha
  Plant response rating, LS canarygrass: 90
[5]; Rate 31 g/ha
  Plant response rating, Deadnettle: 50
[5]; Rate 62 g/ha
  Plant response rating, Deadnettle: 70
[5]; Rate 125 g/ha
  Plant response rating, Deadnettle: 90
[6]; Rate 31 g/ha
  Plant response rating, Wild mustard: 90
[6]; Rate 62 g/ha
  Plant response rating, Wild mustard: 90
[6]; Rate 125 g/ha
  Plant response rating, Wild mustard: 100
[7]; Rate 31 g/ha
  Plant response rating, Wild buckwheat: 40
[7]; Rate 62 g/ha
  Plant response rating, Wild buckwheat: 60
[8]; Rate 31 g/ha
  Plant response rating, Rape: 50
[8]; Rate 62 g/ha
  Plant response rating, Rape: 60
[8]; Rate 125 g/ha
  Plant response rating, Rape: 100
[15]; Rate 16 g/ha
  Plant response rating, Windgrass: 10
[15]; Rate 31 g/ha
  Plant response rating, Windgrass: 10
[15]; Rate 62 g/ha
  Plant response rating, Windgrass: 20
[15]; Rate 125 g/ha
  Plant response rating, Windgrass: 50
[16]; Rate 16 g/ha
  Plant response rating, Common poppy: 60
[16]; Rate 31 g/ha
  Plant response rating, Common poppy: 100
[16]; Rate 62 g/ha
  Plant response rating, Common poppy: 100
[16]; Rate 125 g/ha
  Plant response rating, Common poppy: 100
[17]; Rate 16 g/ha
  Plant response rating, Sugar beet: 100
[17]; Rate 31 g/ha
  Plant response rating, Sugar beet: 100
[17]; Rate 62 g/ha
  Plant response rating, Sugar beet: 100
[17]; Rate 125 g/ha
  Plant response rating, Sugar beet: 100
[18]; Rate 16 g/ha
  Plant response rating, Wild mustard: 60
[18]; Rate 31 g/ha
  Plant response rating, Wild mustard: 70
[18]; Rate 62 g/ha
  Plant response rating, Wild mustard: 98
[18]; Rate 125 g/ha
  Plant response rating, Wild mustard: 100
[19]; Rate 16 g/ha
  Plant response rating, Chickweed: 30
[19]; Rate 31 g/ha
  Plant response rating, Chickweed: 50
[19]; Rate 62 g/ha
  Plant response rating, Chickweed: 70
[19]; Rate 125 g/ha
  Plant response rating, Chickweed: 80
[20]; Rate 16 g/ha
  Plant response rating, Deadnettle: 45
[20]; Rate 31 g/ha
  Plant response rating, Deadnettle: 100
[20]; Rate 62 g/ha
  Plant response rating, Deadnettle: 100
[20]; Rate 125 g/ha
  Plant response rating, Deadnettle: 98
[21]; Rate 16 g/ha
  Plant response rating, Blk nightshade: 55
[21]; Rate 31 g/ha
  Plant response rating, Blk nightshade: 60
[21]; Rate 62 g/ha
  Plant response rating, Blk nightshade: 65
[21]; Rate 125 g/ha
  Plant response rating, Blk nightshade: 65
[22]; Rate 16 g/ha
  Plant response rating, Rape: 65
[22]; Rate 31 g/ha
  Plant response rating, Rape: 65
[22]; Rate 62 g/ha
  Plant response rating, Rape: 98
[22]; Rate 125 g/ha
  Plant response rating, Rape: 85
[9]; Rate 31 g/ha
  Plant response rating, Sugar beet: 100
[9]; Rate 62 g/ha
  Plant response rating, Sugar beet: 100
[9]; Rate 125 g/ha
  Plant response rating, Sugar beet: 100
